According to publication PMC7483518, “Destabilizing single chain major histocompatibility complex class I protein for repurposed enterokinase proteolysis” (Scientific Reports, 2020):
Read-outs that look alike come from different tables or passages of the source.

Experiments:
[1] = target: photolabile unchained HLA-A*11:01 pMHC-I protein (Homo sapiens, UniProt P04439, A114D/D185E/E176A/F33Y/L180Q/S129P/T187R); assay: ELISA with photolabile unchained pMHC-I protein and UV irradiation; assay type: binding; details: for ELISA450nm: Table 2, 62.5 nM photolabile pMHC-I mixture, 5 μM peptide in PBS, UV 365 nm 2 × 5 min on ice, 2 h room temperature on anti-β2m plate, Abs450nm − Abs570nm, instability cutoff < 0.6
[2] = tested on: HLA-A*11:01 single chain protein; assay type: biochemical, Human; design: EZ50kDa / EZ50kD (pH 6.2) / EZ50kD (pH 8) / EZ50kD (normalised: EBV1101 = 1, EBV0201 = 0) / EZ50kDa rank: unit not given beside the values; details: for EZ50kDa rank: HLA-A*11:01 single chain protein, 9-mer peptides;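 as to EZ50kD (pH 6.2): scaled with positive control peptide as 1 and negative control peptide as 0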
[3] = EASY MHC-I A*11:01, 2019-07-25, mean of the 2 replicates

Sequence | ELISA450nm [1] | EZ50kD (pH 6.2) ([2]; pH 6.2) | other results
GSLLDYVREH [CS1026] |  |  | EASY_mean [1]: -0.04117
GSLLDYVREHKD [CS1049] |  |  | EASY_mean [1]: -0.02126
ICLTSTVQLIM [TM1028] |  |  | EZ_mean [2]: -0.09759; EASY_mean ([1]; […], mean, STDEV): -0.04901
ICLTSTVQLIMQ [TM1039] |  |  | EZ_mean [2]: -0.1704; EASY_mean ([1]; ELISA signal, mean, […]): -0.09515
IKTSPKAN [EX1002] |  |  | EZ_mean [2]: -0.02894; EASY_mean [1]: -0.005748
IKTSPKANK [EX1007] |  |  | EZ_mean [2, 3]: -0.05095; EASY_mean ([1]; […], mean, STDEV): -0.0128
IKTSPKANKE [EX1013] |  |  | EZ_mean [2, 3]: -0.04249; EASY_mean ([1]; […], mean, STDEV): -0.007577
KFLPDLYDYK [reference compound] | 0.4809 |  | 
KSGAIKVLK [reference compound] |  | 0.819 | EZ50kD (pH 8) [2]: 0.4865
KTFVDLMRR [reference compound] |  | 0.8241 | EZ50kD (pH 8) [2]: 0.165
LLAQFTSAL [putative peptide, HBV, no IEDB entry] | 0.214 |  | 
LMPFGSLLDYVR [CS1045] |  |  | EASY_mean [1]: 0.002285
LNIDLLWSV [reference compound] | 0.2738 |  | 
LVSFLLLAGR [reference compound] |  |  | EZ50kD (pH 8) [2]: 0.07206
LVVDFSQFSR [reference compound] |  |  | EZ50kD (pH 6.2) ([2]; Table 2, pH 6.2, 37 °C, enterokinase, Eq. (4), instability cutoff < 0.3): 0.9461
MANEMGFLEK [reference compound] |  | 0.527 | 
MATYGWNLVK [reference compound] |  | 0.6384 | EZ50kD (pH 8) [2]: 0.007553
MSYTMCSGK [reference compound] |  | 1.198 | EZ50kDa rank ([2]; pH 6.2, 37 °C): 1.198; EZ50kD (pH 8) [2]: 1.094
MVSRLLLNR [reference compound] |  | 1.196 | EZ50kD (pH 8) [2]: 0.2396
MVWESGCTV [IEDB 140,054, Human; a known HLA-A*02:01 antigen, reference compound] | 0.5937 |  | 
NILNPFLPLL [putative peptide, HBV, no IEDB entry] | 0.2827 |  | 

Sequence | ELISA450nm [1] | EZ50kD (pH 6.2) ([2]; pH 6.2) | other results
PFGSLLDYVRE [CS1035] |  |  | EASY_mean [1]: -0.00332
PFGSLLDYVREH [CS1047] |  |  | EASY_mean [1]: -0.01054
RSQSPRRR [putative peptide, HBV, no IEDB entry] | 0.1859 |  | 
RTLSPRRR [putative peptide, Streptomyces sp, no IEDB entry] | 0.1209 |  | 
RTLSPRRRR [putative peptide, HBV, no IEDB entry] | 0.8658 |  | 
RTQSPRRR [reference compound] | 0.3319 |  | 
RTQSPRRRR [reference compound] | 1.204 |  | 
STLPETTVIR [putative peptide, HBV, no IEDB entry] | 1.302 |  | 
SVQPTFSVQR [reference compound] |  | 1.051 | EZ50kD (pH 8) [2]: 0.7376
TLALEVAQQK [reference compound] |  | 0.7399 | EZ50kD (pH 8) [2]: 0.4517
TMVMELIRMIK [reference compound] | 0.748 |  | 
TSGSPIIDK [reference compound] |  | 0.7953 | EZ50kDa rank ([2]; pH 6.2, 37 °C): 0.795; EZ50kD (pH 8) [2]: 0.1596
TTKRDLGMSK [reference compound] |  | 0.796 | EZ50kD (pH 8) [2]: 0.3796
TTYLGPLSCK [reference compound] |  | 1.084 | EZ50kD (pH 8) [2]: 1.911
TVIRRRGR [reference compound] | 0.1482 |  | 
TVVGRRGRSPR [putative peptide, HBV, no IEDB entry] | 1.259 |  | 
TVVRRRCR [putative peptide, HBV, no IEDB entry] | 0.4625 |  | 
TVVRRRCRSPR [putative peptide, HBV, no IEDB entry] | 0.4145 |  | 
VTRGAVLMHK [reference compound] |  | 0.6228 | 
YVSAIAQTEK [reference compound] |  | 0.3037 | 
